# Source: patent publication US5696117A, “Benzoxazine antimicrobial agents” (Ortho Pharmaceutical Corporation, priority 1995, dated 1997)
# pIC50: −log10 of the molar value. Counter-ions that a name gives are not always drawn.
# Target: T1, Kinase A and SpoOF (Bacillus subtilis, UniProt P16497)
# T1 construct: made in house; host or cells: recombinant E. coli (overexpression)
# T1 sequence (P16497 1-606): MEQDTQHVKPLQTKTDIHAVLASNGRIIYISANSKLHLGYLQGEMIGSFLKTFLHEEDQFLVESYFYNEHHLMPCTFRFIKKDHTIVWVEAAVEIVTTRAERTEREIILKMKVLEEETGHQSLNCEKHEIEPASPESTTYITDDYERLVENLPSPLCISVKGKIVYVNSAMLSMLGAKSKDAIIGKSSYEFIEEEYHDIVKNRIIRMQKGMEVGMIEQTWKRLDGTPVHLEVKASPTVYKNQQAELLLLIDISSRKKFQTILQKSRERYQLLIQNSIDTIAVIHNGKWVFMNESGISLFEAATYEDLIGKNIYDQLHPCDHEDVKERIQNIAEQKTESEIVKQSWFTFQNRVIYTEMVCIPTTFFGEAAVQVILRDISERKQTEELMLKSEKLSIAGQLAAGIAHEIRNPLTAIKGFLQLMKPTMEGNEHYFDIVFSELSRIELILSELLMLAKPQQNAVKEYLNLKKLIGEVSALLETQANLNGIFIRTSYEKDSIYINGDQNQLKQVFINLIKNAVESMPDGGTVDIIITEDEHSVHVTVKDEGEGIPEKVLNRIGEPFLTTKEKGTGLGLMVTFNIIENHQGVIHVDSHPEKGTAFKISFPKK
# Test: Autophosphorylation of Kinase A and Transphosphorylation of SpoOF Assay (HPK in vitro assay)
# Assay type: biochemical
# Details: inhibition of KinA autophosphorylation / SpoOF transphosphorylation, inhibitor concentrations from 1 to 500 μM
# Protocol: 1. Autophosphorylation of Kinase A and Transphosphorylation of SpoOF Assay
# To study the effect of the compounds of the present invention on the signal transduction process in bacteria, the inhibiting effect of the compounds on the sporulation operon proteins Kinase A and SpoOF was examined. Specifically, the inhibition of autophosphorylation of Kinase A and the transphosphorylation of SpoOF was determined in the following assays. The SpoOF response regulator is the primary substrate for phosphorylation by the protein kinase, Kin A, involved in the sporulation process in bacteria. See D. Burbulys, K. A. Trach, J. A. Hoch, Cell, 64, 545-552 (1991). SpoOF and KinA were prepared from recombinant E. coli overexpressing the proteins (J. Cavanagh et al, Amino Acids, 6, 131-140 (1994) and references therein).
# The following stock reagents were either prepared and used promptly or stored at the indicated temperature:
# 8× Salts: 2M KCl (5 mL), 1M MgCl2 (800 mL), 1M CaCl2 (100 mL), 10 mg/mL phenylmethylsulfonyl fluoride (200 mL), 1M dithioreitol (50 mL), 0.25M Na2 EDTA (32 mL) and H2 O 3.82 mL (-20° C.)
# 5× Loading Dye: 0.5M TRIS-HCl-pH 6.8 (7.5 mL), 10% SDS (2 mL) 0.1% bromophenol blue (0.5 mL), 100% glycerol (3 mL) and 12.5M 2-mercaptoethanol (0.3 mL)
# 1-1.3 mg/mL KinA:15 mM TRIS-HCl, pH 8.0, 6 mM KCl; 4 mM 2-mercaptoethanol; 40% glycerol (-20° C.)
# 1 mg/mL SpoOF: 17.5 mM TRIS-HCl, pH 8.0; 0.7 mM KCl; 0.7 mM MgCl2; 0.7 mM CaCl2; 5mM 2-mercaptoethanol; 30% Glycerol (-20° C.)
# 5% Stacking Gel: 40% 29:1 acrylamide:bis acrylamide (1.25 mL), 0.5M TRIS-HCl, pH 6.8 (2.5 mL), 10% SDS (0.1 mL), D-H2 O (6.15 mL) 10% ammonium persulfate (100 mL) and TEMED (25 mL)
# SDS Running Buffer: TRIS-BASE (3.02 g), glycine (14.4 g) SDS (1 g), D-H2 O (to 1 L)
# The reaction mixture was prepared from 8× Salts (87 μL), 1M TRIS, pH 8 (118 μL), 50% glycerol (63 μL), SpoOF (14.1 μL) and KinA (7.0 μL). Microcentrifuge tubes were charged with the reaction mixture (18.5 μL) and a 1.0 mM solution of the test compound in 5% DMSO (18.5 μL), and incubated for 15 min on ice. 100 mM ATP solution (3.0 μl, containing 625 μCi [^32 P]ATP) was added, and the mixture left for 10 minutes at room temperature. The reaction was quenched with 5× loading dye (10 μL per tube) and the samples were loaded on a prepared 5% Stacking Gel, or stored on dry ice until ready for use. The prepared wells were filled with SDS Running Buffer, samples were loaded into the wells, and 80 volts were applied to the gel until the dye front reached the bottom of the stacking gel. The voltage was then increased to 250 volts until electrophoresis was complete. Radioactive bands in the gel corresponding to phosphorylated KinA and SpoOF were imaged and quantitated with a phosphoimager.
# If either enzyme was inhibited (as evidenced by the absence of labelled protein in the developed gel), an IC50 was calculated by running the assay with a range of inhibitor concentrations from 1 to 500 μM. After electrophoresis of the reaction mixtures, percent inhibition was determined by measuring the concentration of radioactive phosphorus with a phosphoimager and calculating the values using a software program (BioRad Molecular Analyst). IC50 values of less than 500 μM are considered active.
IC50,Compound,pIC50
–,"3,4-Dihydro-4-(2,4-dichlorobenzyl)-2-{2-[4-(2-guanidinoethyl)phenoxy]ethyl}-3-oxo-2H-1,4-benzoxazine [Compound 141]",4.43
122 µM,"NCc1cccc(OCCC2Oc3ccccc3N(Cc3ccc(Cl)cc3)C2=O)c1 (stereo not drawn) [Compound 10, 2-[2-[3-(Aminomethyl)phenoxy]ethyl]-4-(4-chlorobenzyl)-3,4-dihydro-3-oxo-2H-1,4-benzoxazine]",–
140 µM,"NCc1cccc(OCCC2Oc3ccccc3N(Cc3ccccc3Cl)C2=O)c1 (stereo not drawn) [Compound 12, 2-[2-[3-(Aminomethyl)phenoxy]ethyl]-4-(2-chlorobenzyl)-3,4-dihydro-3-oxo-2H-1,4-benzoxazine]",–
172 µM,"NCc1ccc(OCCC2Oc3ccccc3N(Cc3ccccc3Cl)C2=O)cc1 (stereo not drawn) [Compound 14, 2-[2-[4-(Aminomethyl)phenoxy]ethyl]-4-(2-chlorobenzyl)-3,4-dihydro-3-oxo-2H-1,4-benzoxazine]",–
264 µM,"NCCc1ccc(OCCC2Oc3ccccc3N(Cc3ccccc3Cl)C2=O)cc1 (stereo not drawn) [Compound 18, 2-[2-[4-(2-Aminoethyl)phenoxy]ethyl]-4-(2-chlorobenzyl)-3,4-dihydro-3-oxo-2H-1,4-benzoxazine]",–
16 µM,"N=C(N)NCCc1ccc(OCCC2Oc3ccccc3N(Cc3ccccc3Cl)C2=O)cc1 (stereo not drawn) [Compound 20, 4-(2-Chlorobenzyl)-2-[2-[4-(2-guanidinoethyl)phenoxy]ethyl]-3,4-dihydro-3-oxo-2H-1,4-benzoxazine]",–
26 µM,"N=C(N)NCc1ccc(OCCC2Oc3ccccc3N(Cc3ccc(Cl)cc3)C2=O)cc1 (stereo not drawn) [Compound 21, 4-(4-Chlorobenzyl)-2-[2-[4-(guanidinomethyl)phenoxy]ethyl]-3,4-dihydro-3-oxo-2H-1,4-benzoxazine]",–
56 µM,"Cc1ccc2c(c1)N(Cc1cccc(Cl)c1)C(=O)C(CCOc1ccc(CCNC(=N)N)cc1)O2 (stereo not drawn) [Compound 24, 4-(3-Chlorobenzyl)-3,4-dihydro-2-[2-[4-(2-guanidinoethyl)phenoxy]ethyl]-6-methyl-3-oxo-2H-1,4-benzoxazine]",–
41 µM,"N=C(N)NCCc1ccc(OCCC2Oc3cccnc3N(Cc3cccc(Cl)c3)C2=O)cc1 (stereo not drawn) [Compound 25, 4-(3-Chlorobenzyl)-3,4-dihydro-2-[2-[4-(2-guanidinoethyl)phenoxy]ethyl]-3-oxo-2H-pyrido[3,2-b]-1,4-oxazine]",–
340 µM,CC(C)(C)OC(=O)N=C(NCCc1ccc(OCCC2Oc3ccccc3N(Cc3ccccc3)C2=O)cc1)NC(=O)OC(C)(C)C (stereo not drawn) [Compound 27],–
44 µM,"N=C(N)NCCc1ccc(OCCC2Oc3ccccc3N(Cc3ccccc3)C2=O)cc1 (stereo not drawn) [Compound 28, 4-Benzyl-3,4-dihydro-2-{2-[4-[2-guanidinoethyl]phenoxy]ethyl}-3-oxo-2H-1,4-benzoxazine Hydrochloride 0.7 Hydrate]",–
54 µM,"COc1ccccc1CN1C(=O)C(CCOc2ccc(CCNC(=N)N)cc2)Oc2ccccc21 (stereo not drawn) [Compound 29, 3,4-Dihydro-2-{2-[4-(2-guanidinoethyl)phenoxy]ethyl}-4-(2-methoxybenzyl)-3-oxo-2H-1,4-benzoxazine]",–
46 µM,"N=C(N)NCCc1ccc(OCCC2Oc3ccccc3N(Cc3cccc(F)c3)C2=O)cc1 (stereo not drawn) [Compound 31, 3,4-Dihydro-4-(3-fluorobenzyl)-2-{2-[4-(2-guanidinoethyl)phenoxy]ethyl}-3-oxo-2 H-1,4-benzoxazine]",–
145 µM,"COc1cccc(CN2C(=O)C(CCOc3ccc(CCNC(=N)N)cc3)Oc3ccccc32)c1 (stereo not drawn) [Compound 33, 3,4-Dihydro-2-{2-[4-(2-guanidinoethyl)phenoxy]ethyl}-4-(3-methoxybenzyl)-3-oxo-2H-1,4-benzoxazine]",–
24 µM,"N=C(N)NCCc1ccc(OCCC2Oc3ccccc3N(Cc3cccc(OCc4ccccc4)c3)C2=O)cc1 (stereo not drawn) [Compound 35, 4-(3-Benzyloxybenzyl)-3,4-dihydro-2-{2-[4-(2-guanidinoethyl)phenoxy]ethyl}-3-oxo-2H-1,4-benzoxazine]",–
72 µM,"N=C(N)NCCc1ccc(OCCC2Oc3ccccc3N(Cc3cccc(O)c3)C2=O)cc1 (stereo not drawn) [Compound 36, 3,4-Dihydro-2-{2-[4-(2-guanidinoethyl)phenoxy]ethyl}-4-(3-hydroxybenzyl)-3-oxo-2H-1,4-benzoxazine]",–
51 µM,"COc1ccc(CN2C(=O)C(CCOc3ccc(CCNC(=N)N)cc3)Oc3ccccc32)cc1 (stereo not drawn) [Compound 37, 3,4-Dihydro-2-{2-[4-(2-guanidinoethyl)phenoxy]ethyl}-4-(4-methoxybenzyl)-3-oxo-2H-1,4-benzoxazine]",–
34 µM,"N=C(N)NCCc1ccc(OCCC2Oc3ccccc3N(Cc3ccc(-c4ccccc4)cc3)C2=O)cc1 (stereo not drawn) [Compound 38, 3,4-Dihydro-2-{2-[4-(2-guanidinoethyl)phenoxy]ethyl}-3-oxo-4-(4-phenylbenzyl)-2H-1,4-benzoxazine]",–

Compound,IC50,pIC50
"CC(C)(C)OC(=O)NCc1ccc(OCCC2Oc3ccccc3N(Cc3cccc(Cl)c3)C2=O)cc1 (stereo not drawn) [Compound 1, 2-[2-[4-(t-Butoxycarbonylaminomethyl)phenoxy]ethyl]-4-(3-chlorobenzyl)-3,4-dihydro-3-oxo-2H-1,4-benzoxazine]",253 µM,–
"CC(C)(C)OC(=O)NCc1ccc(OCCC2Oc3ccccc3N(Cc3ccc(Cl)cc3)C2=O)cc1 (stereo not drawn) [Compound 3, 2-[2-[4-(t-Butoxycarbonylaminomethyl)phenoxy]ethyl]-4-(4-chlorobenzyl)-3,4-dihydro-3-oxo-2H-1,4-benzoxazine]",283 µM,–
"CC(C)(C)OC(=O)NCCc1cccc(OCCC2Oc3ccccc3N(Cc3ccc(Cl)cc3)C2=O)c1 (stereo not drawn) [Compound 7, 2-{2-[3-(2-t-Butoxycarbonylaminoethyl)phenoxy]ethyl}-4-(4-chlorobenzyl)-3,4-dihydro-3-oxo-2H-1,4-benzoxazine]",308 µM,–
"CC(C)(C)OC(=O)NCc1ccc(OCCC2Oc3ccccc3N(Cc3ccccc3Cl)C2=O)cc1 (stereo not drawn) [Compound 13, 2-[2-[4-(t-Butoxycarbonylaminomethyl)phenoxy]ethyl]-4-(2-chlorobenzyl)-3,4-dihydro-3-oxo-2H-1,4-benzoxazine]",272 µM,–
"CC(C)(C)OC(=O)NCCc1cccc(OCCC2Oc3ccccc3N(Cc3ccccc3Cl)C2=O)c1 (stereo not drawn) [Compound 15, 2-[2-[3-(2-(t-Butoxycarbonylamino)ethyl)phenoxy]ethyl]-4-(2-chlorobenzyl)-3,4-dihydro-3-oxo-2H-1,4-benzoxazine]",165 µM,–
"CC(C)(C)OC(=O)NCCc1ccc(OCCC2Oc3ccccc3N(Cc3ccccc3Cl)C2=O)cc1 (stereo not drawn) [Compound 17, 2-[2-[4-(2-(t-Butoxycarbonylamino)ethyl)phenoxy]ethyl]-4-(2-chlorobenzyl)-3,4-dihydro-3-oxo-2H-1,4-benzoxazine]",352 µM,–
